Measured values as given in patent US20240245677A1, “SELECTED COMPOUNDS FOR TARGETED DEGRADATION OF BRD9” (C4 THERAPEUTICS, INC., priority 2021, published 2024).

Tests used:
[1] = Compression and ball-milling experiments; assay type: physicochemical
Protocol: Feasibility of formulation processes was evaluated with compression and ball-milling experiments. […] However, the hydrate Form N is sensitive to pressure.

[2] = Bulk stability study (1 week stress conditions; drying); settings: 25° C./92% RH open vial, 40° C./75% RH open vial or 60° C. closed vial, 1 week
[3] = Hygroscopicity by DVS at 25° C.; assay type: physicochemical; settings: DVS 25° C., from 40% RH to 70% RH
Protocol: Hygroscopicity of Form A and Form N was investigated by DVS at 25° C. […] Form A converted to Form K after the DVS test. Form K is a metastable hydrate. It reverted back to Form A after exposure to ambient condition.
Hygroscopicity of the free base Pattern A* and the urea cocrystal Form P were evaluated by DVS at 25° C.

[4] = Equilibration with solvents at 50° C. for 1 week (XRPD); assay type: physicochemical
Protocol: (§1) The obtained suspension was filtered through a 0.45 μm nylon membrane filter by centrifugation at 14,000 rpm for 5 min. Solid parts (wet cakes) were investigated by XRPD immediately. For samples with different XRPD results, additional analysis including HPLC, DSC, TGA, ^1H-NMR and KF was performed. Some samples with Form K were exposure to ambient condition and investigated by XRPD again.

[5] = Equilibration under a temperature cycle (XRPD); assay type: physicochemical
Protocol: as §1, with “Obtained” for “The obtained”

[6] = Equilibration with solvents at 25° C. for 2 weeks (XRPD); assay type: physicochemical
Protocol: Obtained suspension was filtered through a 0.45 μm nylon membrane filter by centrifugation at 14,000 rpm for 5 min. Solid parts (wet cakes) were investigated by XRPD immediately. Some samples with Form K were exposure to ambient condition and investigated by XRPD again.

[7] = Approximate solubility in solvents at 25° C. and 50° C. (visual observation); assay type: physicochemical; settings: for Solubility (mg/mL), 25° C.: target conc. = 250 mg/mL; for Solubility (mg/mL), 50° C.: target conc. = 500 mg/mL
Protocol: Max. volume of each solvent added was 1 mL. Approximate solubility was determined by visual observation.
Max volume of each solvent added was 1 mL. Approximate solubility was determined by visual observation.

SMILES: COc1cc(-c2cn(C)c(=O)c(C)c2C)cc(OC)c1CN1CC[C@H](N2CCN(c3ccc(N[C@H]4CCC(=O)NC4=O)cc3F)CC2)C(F)(F)C1 [Form A]
- behavior under ball milling ([1]; ball milling for 5 min): no obvious crystallinity decrease
- behavior under compression ([1]; compression, 2 to 10 MPa): no form change and no obvious crystallinity decrease even under 10 MPa
- physical and chemical stability [2]: physically and chemically stable
- water uptake [3]: about 2.0%

SMILES: COc1cc(-c2cn(C)c(=O)c(C)c2C)cc(OC)c1CN1CC[C@H](N2CCN(c3ccc(N[C@H]4CCC(=O)NC4=O)cc3F)CC2)C(F)(F)C1 [Pattern E]
- XRPD ([4]; equilibration at 50° C. for 1 week, 1,4-Dioxane/heptane (v:v = 1:1)): +Pattern B
- XRPD ([4]; equilibration at 50° C. for 1 week, 2-MeTHF): +Pattern B
- XRPD ([4]; equilibration at 50° C. for 1 week, Acetone): +Pattern B
- XRPD ([4]; equilibration at 50° C. for 1 week, Acetone/water (v:v = 36:64) a.w. = 0.90): +Pattern K
- XRPD ([4]; equilibration at 50° C. for 1 week, Acetone/water (v:v = 76:24) a.w. = 0.71): +Pattern B
- XRPD ([4]; equilibration at 50° C. for 1 week, Acetone/water (v:v = 92:8) a.w. = 0.50): +Pattern B
- XRPD ([4]; equilibration at 50° C. for 1 week, Acetonitrile): +Pattern F
- XRPD ([4]; equilibration at 50° C. for 1 week, DMSO/water (v:v = 23:77) a.w. = 0.91): +Pattern K
- XRPD ([4]; equilibration at 50° C. for 1 week, DMSO/water (v:v = 64:36) a.w. = 0.53): +Pattern B
- XRPD ([4]; equilibration at 50° C. for 1 week, Ethanol): +Pattern F
- XRPD ([4]; equilibration at 50° C. for 1 week, Ethyl acetate): +Pattern F
- XRPD ([4]; equilibration at 50° C. for 1 week, THF/heptane (v:v = 1:1)): +Pattern B
- XRPD ([4]; equilibration at 50° C. for 1 week, Toluene): +Pattern G
- XRPD ([5]; equilibration under a temperature cycle, 1,4-Dioxane/heptane (v:v = 1:1)): +Pattern B
- XRPD ([5]; equilibration under a temperature cycle, 2-MeTHF): +Pattern F
- XRPD ([5]; equilibration under a temperature cycle, Acetone): +Pattern B
- XRPD ([5]; equilibration under a temperature cycle, Acetone/water (v:v = 36:64)): +Pattern K
- XRPD ([5]; equilibration under a temperature cycle, Acetone/water (v:v = 76:24)): +Pattern A
- XRPD ([5]; equilibration under a temperature cycle, Acetone/water (v:v = 92:8)): +Pattern B
- XRPD ([5]; equilibration under a temperature cycle, Acetonitrile): +Pattern B
- XRPD ([5]; equilibration under a temperature cycle, DCM/heptane (v:v = 1:1)): +Pattern F
- XRPD ([5]; equilibration under a temperature cycle, DMSO/water (v:v = 64:36)): +Pattern F
- XRPD ([5]; equilibration under a temperature cycle, Ethanol): +Pattern F
- XRPD ([5]; equilibration under a temperature cycle, Ethyl acetate): +Pattern F
- XRPD ([5]; equilibration under a temperature cycle, Methanol): +Pattern B
- XRPD ([5]; equilibration under a temperature cycle, THF/heptane (v:v = 1:1)): +Pattern F
- XRPD ([5]; equilibration under a temperature cycle, Toluene): +Pattern A
- XRPD after equilibration at 25° C. for 2 weeks ([6]; 1,4-dioxane/heptane (v:v = 1:1)): +Pattern B
- XRPD after equilibration at 25° C. for 2 weeks ([6]; 2-MeTHF): +Pattern B
- XRPD after equilibration at 25° C. for 2 weeks ([6]; Acetone): +Pattern B
- XRPD after equilibration at 25° C. for 2 weeks ([6]; Acetone/water (v:v = 36:64) a.w. = 0.90): +Pattern K
- XRPD after equilibration at 25° C. for 2 weeks ([6]; Acetone/water (v:v = 76:24) a.w. = 0.70): +Pattern B
- XRPD after equilibration at 25° C. for 2 weeks ([6]; Acetone/water (v:v = 92:8) a.w. = 0.50): +Pattern B
- XRPD after equilibration at 25° C. for 2 weeks ([6]; Acetonitrile): +Pattern B
- XRPD after equilibration at 25° C. for 2 weeks ([6]; DCM/heptane (v:v = 1:1)): +Pattern F
- XRPD after equilibration at 25° C. for 2 weeks ([6]; DMSO/water (v:v = 23:77) a.w. = 0.91): +Pattern K
- XRPD after equilibration at 25° C. for 2 weeks ([6]; Ethanol): +Pattern A
- XRPD after equilibration at 25° C. for 2 weeks ([6]; Ethyl acetate): +Pattern F
- XRPD after equilibration at 25° C. for 2 weeks ([6]; Methanol): +Pattern K
- XRPD after equilibration at 25° C. for 2 weeks ([6]; THF/heptane (v:v = 1:1)): +Pattern B
- XRPD after equilibration at 25° C. for 2 weeks ([6]; Toluene): +Pattern K
- Solubility (mg/mL), 25° C. ([7]; 1,4-Dioxane): >250 mg/mL
- Solubility (mg/mL), 50° C. ([7]; 1,4-Dioxane): >500 mg/mL
- Solubility (mg/mL), 25° C. ([7]; 2-MeTHF): 83 to 125 mg/mL
- Solubility (mg/mL), 50° C. ([7]; 2-MeTHF): 250 to 500 mg/mL
- Solubility (mg/mL), 25° C. ([7]; Acetone): 20 to 25 mg/mL
- Solubility (mg/mL), 50° C. ([7]; Acetone): 100 to 200 mg/mL
- Solubility (mg/mL), 25° C. ([7]; Acetonitrile): 5 to 6 mg/mL
- Solubility (mg/mL), 50° C. ([7]; Acetonitrile): <10 mg/mL
- Solubility (mg/mL), 25° C. ([7]; DCM): 125 to 250 mg/mL
- Solubility (mg/mL), 25° C. ([7]; DMSO): >250 mg/mL
- Solubility (mg/mL), 50° C. ([7]; DMSO): >500 mg/mL
- Solubility (mg/mL), 25° C. ([7]; Ethanol): 6 to 8 mg/mL
- Solubility (mg/mL), 50° C. ([7]; Ethanol): 16 to 25 mg/mL
- Solubility (mg/mL), 25° C. ([7]; Ethyl acetate): 6 to 8 mg/mL
- Solubility (mg/mL), 50° C. ([7]; Ethyl acetate): 14 to 20 mg/mL
- Solubility (mg/mL), 25° C. ([7]; Heptane): <5 mg/mL
- Solubility (mg/mL), 50° C. ([7]; Heptane): <10 mg/mL
- Solubility (mg/mL), 25° C. ([7]; MTBE (Methyl tert-butyl ether)): <5 mg/mL
- Solubility (mg/mL), 50° C. ([7]; MTBE): <10 mg/mL
- Solubility (mg/mL), 25° C. ([7]; Methanol): 8 to 13 mg/mL
- Solubility (mg/mL), 50° C. ([7]; Methanol): 18 to 22 mg/mL
- Solubility (mg/mL), 25° C. ([7]; Methanol/water (v:v = 95:5)): 8 to 13 mg/mL
- Solubility (mg/mL), 50° C. ([7]; Methanol/water (v:v = 95:5)): 14 to 20 mg/mL
- Solubility (mg/mL), 25° C. ([7]; THF (Tetrahydrofuran)): >250 mg/mL
- Solubility (mg/mL), 50° C. ([7]; THF): >500 mg/mL
- Solubility (mg/mL), 25° C. ([7]; Toluene): <5 mg/mL
- Solubility (mg/mL), 50° C. ([7]; Toluene): <10 mg/mL
- Solubility (mg/mL), 25° C. ([7]; Water): <5 mg/mL
- Solubility (mg/mL), 50° C. ([7]; Water): <10 mg/mL
